Data as given in the supplement of paper PMC10307832.

Assays:
Experiment in all cases: relative viability (nuclei count vs DMSO), 5 days (fraction); higher = more cells survive
Pemetrexed + Foretinib = compound: Nc1nc2[nH]cc(CCc3ccc(C(=O)N[C@@H](CCC(=O)O)C(=O)O)cc3)c2c(=O)[nH]1 [Pemetrexed] + COc1cc2c(Oc3ccc(NC(=O)C4(C(=O)Nc5ccc(F)cc5)CC4)cc3F)ccnc2cc1OCCCN1CCOCC1 [Foretinib] (partner 0.25 µM)
In short: (§1)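 Relative viability equals treated-well nuclei counts divided by vehicle-well nuclei counts. Counts came from 4× images of lung cancer cell lines grown in 1536-well plates for 5 days after pin-tool dosing on the day after seeding. Dosing used one drug alone or a fixed anchor-drug dose plus five library-drug doses (not always all listed) in √10 steps, and values are medians of duplicate plates.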

Pemetrexed + Pictilisib = compound: Nc1nc2[nH]cc(CCc3ccc(C(=O)N[C@@H](CCC(=O)O)C(=O)O)cc3)c2c(=O)[nH]1 [Pemetrexed] + CS(=O)(=O)N1CCN(Cc2cc3nc(-c4cccc5[nH]ncc45)nc(N4CCOCC4)c3s2)CC1 [Pictilisib] (partner 1 µM)
In short: as §1

Pemetrexed + Linsitinib = compound: Nc1nc2[nH]cc(CCc3ccc(C(=O)N[C@@H](CCC(=O)O)C(=O)O)cc3)c2c(=O)[nH]1 [Pemetrexed] + C[C@]1(O)C[C@@H](c2nc(-c3ccc4ccc(-c5ccccc5)nc4c3)c3c(N)nccn32)C1 [Linsitinib] (partner 1 µM)
In short: as §1

Idelalisib + Pictilisib = compound: CC[C@H](Nc1ncnc2[nH]cnc12)c1nc2cccc(F)c2c(=O)n1-c1ccccc1 [Idelalisib] + CS(=O)(=O)N1CCN(Cc2cc3nc(-c4cccc5[nH]ncc45)nc(N4CCOCC4)c3s2)CC1 [Pictilisib] (partner 1 µM)
In short: as §1

In the case of UMC-11, the relative viability (Pemetrexed + Foretinib; first compound 0.002 µM) is reported as 1.02, the relative viability (Pemetrexed + Foretinib; first compound 0.006325 µM) is reported as 0.943 and the relative viability (Pemetrexed + Foretinib; first compound 0.02 µM) is reported as 1.14. It also gave a relative viability (Pemetrexed + Foretinib; first compound 0.06325 µM) of 1.02, a relative viability (Pemetrexed + Foretinib; first compound 0.2 µM) of 0.847 and a relative viability (Pemetrexed + Pictilisib; first compound 0.002 µM) of 0.809. The relative viability (Pemetrexed + Pictilisib; first compound 0.006325 µM) was 0.807, the relative viability (Pemetrexed + Pictilisib; first compound 0.02 µM) was 0.837 and the relative viability (Pemetrexed + Pictilisib; first compound 0.06325 µM) was 0.781. It also gave a relative viability (Pemetrexed + Pictilisib; first compound 0.2 µM) of 0.556, a relative viability (Pemetrexed + Linsitinib; first compound 0.002 µM) of 0.836 and a relative viability (Pemetrexed + Linsitinib; first compound 0.006325 µM) of 1.03. For the same cell line, the relative viability (Pemetrexed + Linsitinib; first compound 0.02 µM) was 1.08, the relative viability (Pemetrexed + Linsitinib; first compound 0.06325 µM) was 0.985 and the relative viability (Pemetrexed + Linsitinib; first compound 0.2 µM) was 0.903. It also gave a relative viability (Idelalisib + Pictilisib; first compound 0.04 µM) of 0.939, a relative viability (Idelalisib + Pictilisib; first compound 0.1265 µM) of 0.744 and a relative viability (Idelalisib + Pictilisib; first compound 0.4 µM) of 0.778. The relative viability (Idelalisib + Pictilisib; first compound 1.265 µM) was 0.939 and the relative viability (Idelalisib + Pictilisib; first compound 4 µM) was 0.865.
